US11767310B2, “Nicotinamide RIPK1 inhibitors” (AbbVie Inc., priority 2021, dated 2023)
Marks after values point to notes of the source that are not given here.

Tests used:
[1] = Prodrug bioconversion in intestinal S9 cell fractions; format: in vitro ADME; conditions: 0.25 mg/mL
Procedure: (§1) Phosphatase enzymes are […] expressed with unique tissue specific isoforms and are key catalysts in the conversion of phosphate-containing prodrugs. To determine if exemplary phosphate prodrug compounds of the invention are enzymatically converted to the parent molecule across relevant species, the prodrug compounds were incubated with intestinal S9 cell fractions obtained from mouse, rat, dog, monkey, and human.
Phosphate prodrugs were incubated (1 μM) for up to 2 hours in Tris-Cl buffer (pH 7.4) containing 3 mM magnesium chloride, intestinal S9 protein ([…] (ms, rat, hu, Table F) from mouse, rat, dog, monkey or human. Incubations were conducted in the absence and presence of 1 mM sodium orthovanadate, a phosphatase inhibitor. Prodrug depletion and parent formation were monitored by LC-MS/MS and normalized to internal standard as the analyte peak area ratio.

[2] = as above; format: in vitro ADME
Procedure: as §1
[…] Incubations were conducted in the absence and presence of 1 mM sodium orthovanadate, a phosphatase inhibitor. Prodrug depletion and parent formation were monitored by LC-MS/MS and normalized to internal standard as the analyte peak area ratio.

U937 cells = experiment: U937 TNF/zVAD Cytotoxicity Cell Assay; format: cell-based; conditions: Homo sapiens, U-937; TNFα 10 ng/mL + Z-VAD FMK 20 μM, 16-20 hours; read-out: U937 TNF/zVAD Induced Cytotoxicity IC50
Procedure: Compounds were tested for their ability to prevent TNF induced necroptosis in U937 cells. Treatment with TNF and the caspase inhibitor zVAD-FMK results in the activation and phosphorylation of RIPK1 and subsequent phosphorylation of RIPK3 and MLKL (Mixed Lineage Kinase Domain Like Pseudokinase), leading to induction of necroptotic cell death that is measured as a reduction in cell viability. Similar U937 assay protocols have been previously described; see, e.g., Harris et al., ACS Med. Chem. Letters (2013) 4:1238-1243 and Supplementary Information.
Test compounds were solvated in dimethyl sulfoxide (DMSO) and 3-fold serially diluted from 10 uM to 0.0005 uM with technical duplicates into an empty 384 well plate. U937 cells were resuspended at a concentration of 500,000 cells/mL in fresh RPMI (Roswell Park Memorial Institute) 1640 growth medium containing 10% heat inactivated fetal bovine serum (FB1S) and seeded into a 384 well plate containing compounds and incubated for 1 hour at 37° C. Following incubation, the cells were challenged with TNFα (final concentration of 10 ng/mL) and Z-VAD FMK (N-Benzyloxycarbonyl-Val-Ala-Asp(O-Me) fluoromethyl ketone; final concentration of 20 μM) for 16-20 hours at 37° C. Following the incubation with TNFα/Z-VAD, cells were lysed with Cell Titer-Glo and incubated for 5-10 minutes. The plate was then read on an Envision plate reader. Data was normalized and analyzed with Studies from Dotmatics.

[3] = Human, 0.01 mg/mL S9 protein, Table F
[4] = Human, 0.25 mg/mL S9 protein, Table F
[5] = Human, 0.25 mg/mL, Experiment 1
[6] = Human, 0.25 mg/mL, Experiment 2
[7] = Human, 0.25 mg/mL, Experiment 3
[8] = Human, 0.25 mg/mL, Mean of 3 experiments
[9] = Mouse, 0.01 mg/mL S9 protein, Table F
[10] = Mouse, 0.25 mg/mL S9 protein, Table F
[11] = Mouse, 0.25 mg/mL, Experiment 1
[12] = Mouse, 0.25 mg/mL, Experiment 2
[13] = Mouse, 0.25 mg/mL, Experiment 3
[14] = Mouse, 0.25 mg/mL, Mean of 3 experiments
[15] = Rat, 0.01 mg/mL S9 protein, Table F
[16] = Rat, 0.25 mg/mL S9 protein, Table F
[17] = Rat, 0.25 mg/mL, Mean of 3 experiments

Row | Clint (prodrug disappearance) ([1]; Dog, Experiment 1) | Clint (prodrug disappearance) ([1]; Dog, Experiment 2) | Clint (prodrug disappearance) ([1]; Dog, Experiment 3) | Clint (prodrug disappearance) ([1]; Dog, Mean of 3 experiments) | Clint (prodrug disappearance) ([1]; Monkey, Experiment 1) | Clint (prodrug disappearance) ([1]; Monkey, Experiment 2) | Clint (prodrug disappearance) ([1]; Monkey, Experiment 3) | Clint (prodrug disappearance) ([1]; Monkey, Mean of 3 experiments) | Clint (prodrug disappearance) [2, 3] | Clint (prodrug disappearance) [2, 4] | Clint (prodrug disappearance) [2, 5] | Clint (prodrug disappearance) [2, 6] | Clint (prodrug disappearance) [2, 7] | Clint (prodrug disappearance) [2, 8] | Clint (prodrug disappearance) [2, 9] | Clint (prodrug disappearance) [2, 10] | Clint (prodrug disappearance) [2, 11] | Clint (prodrug disappearance) [2, 12] | Clint (prodrug disappearance) [2, 13] | Clint (prodrug disappearance) [2, 14] | SMILES | further results
1 | 354 μL/min/mg intestinal S9 protein | 369 μL/min/mg intestinal S9 protein | 345 μL/min/mg intestinal S9 protein | 356 μL/min/mg intestinal S9 protein | 55.4 μL/min/mg intestinal S9 protein | 47.7 μL/min/mg intestinal S9 protein | 48.1 μL/min/mg intestinal S9 protein | 50.4 μL/min/mg intestinal S9 protein | 1180.2 μL/min/mg intestinal S9 protein | 243.4 μL/min/mg intestinal S9 protein | 199 μL/min/mg intestinal S9 protein | 241 μL/min/mg intestinal S9 protein | 203 μL/min/mg intestinal S9 protein | 214 μL/min/mg intestinal S9 protein | <137** μL/min/mg intestinal S9 protein | 23.3 μL/min/mg intestinal S9 protein | 26.2 μL/min/mg intestinal S9 protein | 34.3 μL/min/mg intestinal S9 protein | 31.3 μL/min/mg intestinal S9 protein | 30.6 μL/min/mg intestinal S9 protein | CN(C[C@H](Cc1ccccc1)OP(=O)(O)O)C(=O)c1cncc(C#Cc2cnn(C)n2)c1 [Example 23, (S)-1-(N-methyl-5-((2-methyl-2H-1,2,3-triazol-4-yl)ethynyl)nicotinamido)-3-phenylpropan-2-yl dihydrogen phosphate] | Clint (prodrug disappearance) [2, 15]: <137** μL/min/mg intestinal S9 protein; Clint (prodrug disappearance) [2, 16]: 36.7 μL/min/mg intestinal S9 protein; Clint (prodrug disappearance) ([2]; Rat, 0.25 mg/mL, Experiment 1): 29.1 μL/min/mg intestinal S9 protein; Clint (prodrug disappearance) ([2]; Rat, 0.25 mg/mL, Experiment 2): 33.8 μL/min/mg intestinal S9 protein; Clint (prodrug disappearance) ([2]; Rat, 0.25 mg/mL, Experiment 3): 28.2 μL/min/mg intestinal S9 protein; Clint (prodrug disappearance) [2, 17]: 30.4 μL/min/mg intestinal S9 protein
2 | 10.2 μL/min/mg intestinal S9 protein | 14.4 μL/min/mg intestinal S9 protein | 11.5 μL/min/mg intestinal S9 protein | 12.0 μL/min/mg intestinal S9 protein | 38.1 μL/min/mg intestinal S9 protein | 49.0 μL/min/mg intestinal S9 protein | 40.7 μL/min/mg intestinal S9 protein | 42.6 μL/min/mg intestinal S9 protein | 378.1 μL/min/mg intestinal S9 protein | 410 μL/min/mg intestinal S9 protein | 272 μL/min/mg intestinal S9 protein | 294 μL/min/mg intestinal S9 protein | 293 μL/min/mg intestinal S9 protein | 286 μL/min/mg intestinal S9 protein | 6821.9 μL/min/mg intestinal S9 protein | >1640.7* μL/min/mg intestinal S9 protein | >480* μL/min/mg intestinal S9 protein | >480* μL/min/mg intestinal S9 protein | >480* μL/min/mg intestinal S9 protein | >480* μL/min/mg intestinal S9 protein | CN(C[C@H](Cc1ccccc1)OC(=O)CN)C(=O)c1cncc(C#Cc2cnn(C)n2)c1 [Example 25, (S)-1-(N-methyl-5-((2-methyl-2H-1,2,3-triazol-4-yl)ethynyl)nicotinamido)-3-phenylpropan-2-yl 2-aminoacetate, hydrochloric acid] | Clint (prodrug disappearance) [2, 15]: 1087.6 μL/min/mg intestinal S9 protein; Clint (prodrug disappearance) [2, 16]: 393.8 μL/min/mg intestinal S9 protein; Clint (prodrug disappearance) ([2]; Rat, 0.25 mg/mL, Experiment 1): 217 μL/min/mg intestinal S9 protein; Clint (prodrug disappearance) ([2]; Rat, 0.25 mg/mL, Experiment 2): 318 μL/min/mg intestinal S9 protein; Clint (prodrug disappearance) ([2]; Rat, 0.25 mg/mL, Experiment 3): 299 μL/min/mg intestinal S9 protein; Clint (prodrug disappearance) [2, 17]: 278 μL/min/mg intestinal S9 protein
3 | 5.62 μL/min/mg intestinal S9 protein | 16.1 μL/min/mg intestinal S9 protein | 14.3 μL/min/mg intestinal S9 protein | 12.0 μL/min/mg intestinal S9 protein | 89.6 μL/min/mg intestinal S9 protein | 91.3 μL/min/mg intestinal S9 protein | 90.7 μL/min/mg intestinal S9 protein | 90.5 μL/min/mg intestinal S9 protein | 815.9 μL/min/mg intestinal S9 protein | 592.9 μL/min/mg intestinal S9 protein | 391 μL/min/mg intestinal S9 protein | 400 μL/min/mg intestinal S9 protein | 355 μL/min/mg intestinal S9 protein | 382 μL/min/mg intestinal S9 protein | 11160 μL/min/mg intestinal S9 protein | >4166.5* μL/min/mg intestinal S9 protein | >480* μL/min/mg intestinal S9 protein | >480* μL/min/mg intestinal S9 protein | >480* μL/min/mg intestinal S9 protein | >480* μL/min/mg intestinal S9 protein | CN(C[C@H](Cc1ccccc1)OC(=O)CN)C(=O)c1cncc(C#Cc2cnn(C(F)F)c2)c1 [Example 21, (S)-1-(5-((1-(difluoromethyl)-1H-pyrazol-4-yl)ethynyl)-N-methylnicotinamido)-3-phenylpropan-2-yl 2-aminoacetate, hydrochloric acid] | Clint (prodrug disappearance) [2, 15]: 2599.5 μL/min/mg intestinal S9 protein; Clint (prodrug disappearance) [2, 16]: 901.6 μL/min/mg intestinal S9 protein; Clint (prodrug disappearance) ([2]; Rat, 0.25 mg/mL, Experiment 1): 396 μL/min/mg intestinal S9 protein; Clint (prodrug disappearance) ([2]; Rat, 0.25 mg/mL, Experiment 2): 719 μL/min/mg intestinal S9 protein; Clint (prodrug disappearance) ([2]; Rat, 0.25 mg/mL, Experiment 3): 750 μL/min/mg intestinal S9 protein; Clint (prodrug disappearance) [2, 17]: 622 μL/min/mg intestinal S9 protein

The remaining lines, values behind:

Row | SMILES | Clint (prodrug disappearance) ([1]; Dog, Experiment 1) | Clint (prodrug disappearance) ([1]; Dog, Experiment 2) | Clint (prodrug disappearance) ([1]; Dog, Experiment 3) | Clint (prodrug disappearance) ([1]; Dog, Mean of 3 experiments) | Clint (prodrug disappearance) ([1]; Monkey, Experiment 1) | Clint (prodrug disappearance) ([1]; Monkey, Experiment 2) | Clint (prodrug disappearance) ([1]; Monkey, Experiment 3) | Clint (prodrug disappearance) ([1]; Monkey, Mean of 3 experiments) | Clint (prodrug disappearance) [2, 3] | Clint (prodrug disappearance) [2, 4] | Clint (prodrug disappearance) [2, 5] | Clint (prodrug disappearance) [2, 6] | Clint (prodrug disappearance) [2, 7] | Clint (prodrug disappearance) [2, 8] | Clint (prodrug disappearance) [2, 9] | Clint (prodrug disappearance) [2, 10] | Clint (prodrug disappearance) [2, 11] | Clint (prodrug disappearance) [2, 12] | Clint (prodrug disappearance) [2, 13] | Clint (prodrug disappearance) [2, 14] | further results
4 | CN(C[C@@H](O)Cc1ccccc1)C(=O)c1cncc(C#Cc2cnn(C)c2)c1 [Example 1, (S)-N-(2-hydroxy-3-phenylpropyl)-N-methyl-5-((1-methyl-1H-pyrazol-4-yl)ethynyl)nicotinamide] | – | – | – | – | – | – | – | – | – | – | – | – | – | – | – | – | – | – | – | – | IC50 (U937 cells): 34 nM
5 | Cc1ncc(C(=O)NC[C@@H](O)Cc2ccccc2)cc1C#Cc1cncs1 [Example 16, (S)-N-(2-hydroxy-3-phenylpropyl)-6-methyl-5-(thiazol-5-ylethynyl)nicotinamide] | – | – | – | – | – | – | – | – | – | – | – | – | – | – | – | – | – | – | – | – | IC50 (U937 cells): 2580 nM
6 | Cc1ncc(C(=O)N(C)C[C@@H](O)Cc2ccccc2)cc1C#Cc1cnn(C)c1 [Example 14, (S)-N-(2-hydroxy-3-phenylpropyl)-N,6-dimethyl-5-((1-methyl-1H-pyrazol-4-yl)ethynyl)nicotinamide] | – | – | – | – | – | – | – | – | – | – | – | – | – | – | – | – | – | – | – | – | IC50 (U937 cells): 18 nM
